Laboratory results taken from patent publication US20240400579A1, “SPIROCYCLIC MODULATORS OF CHOLESTEROL BIOSYNTHESIS AND THEIR USE FOR PROMOTING REMYELINATION” (GENENTECH, INC., priority 2021, published 2024).
Where two headings read alike, the source gives them in different places.

What was measured:
[1] = molecular target: human emopamil binding protein and human 7-dehydrocholesterol reductase co-expressing cell membrane (Homo sapiens (Human), UniProt Q15125); experiment: hEBP-DHCR7 radioligand filtration binding assay with [3H]-Compound 118A*; conditions: radioligand [3H]-Compound 118A*; HEK293 membrane co-expressing hEBP and DHCR7
Procedure: Membrane Preparation: human emopamil binding protein and human 7-dehydrocholesterol reductase co-expressing cells were generated by transient transfecting host human embryonic kidney (HEK) 293 cells with 2 DNA constructs containing each protein's coding sequence. Cells were suspension cultured at 37° C. with 5% CO2 in […] 293 Expression Medium (Thermofisher). Whole cell membrane was prepared by harvesting the cell pellet, adding cold membrane buffer (50 mM Tris, pH7.5, 1× Roche COMPLETE EDTA-free protease inhibitor cocktail) 10 times volume of the cell pellets weight, lysing cell pellet on ice by using Dounce homogenizer, spinning at 200 g 4° C. for 15 min, collecting supernatant and spinning again at 25000 g 4° C. for 50 min, transferring pellet to Dounce homogenizer, re-suspending pellet by homogenizing in membrane buffer on ice to reach ˜25 mg/mL, then keeping whole cell membrane aliquots at −80° C.
Compounds were prepared in a 96-well U bottom plate using an Echo550 machine and 10 mM compound DMSO stock solution, followed by an 8-dose 5-fold serial dilutions protocol with final testing compound concentration ranging from 0.06 to 5000 nM, with DMSO back fill to 100 nL/well and n=2. […] The UniFilter-96 GF/B plates were pre-treated by adding 50 μl/well of 0.3% (v/v) PEI to UniFilter-96 GF/B plates. The plates were sealed and incubated at 4° C. for 3 hrs. Then, the plates were washed with ice-cold assay buffer 3 times. The radioligand binding assay was prepared by adding assay buffer diluted hEBP-DHCR7 membrane at 66.7 μg/ml x 150 μl/well into the 96-well compound plate to reach 10 μg membrane per well. Then, the assay buffer diluted [3H]-Compound 118A* was added at 25 nM×50 μl/well. Following this, the plate was centrifuged at 1000 rpm for 30 secs. The plate was then sealed and agitated at 600 rpm at 22° C. for 5 min, and then incubated at 22° C. for 3 hrs. The incubation was stopped by transferring the binding solution to the pre-treated UniFilter-96 GF/B plate, vacuum filtrated, and then washed four times with ice-cold assay buffer. Following this, the plates were dried at 37° C. for 45 min. The plates were then sealed at the bottom. 40 μl/well of scintillation cocktail was added to the plates. A MicroBeta2 microplate counter was then used to read the plate and analyze the data. For reference and test compounds, the results are expressed as % Inhibition, using the normalization equation: N=100-100×(U−C2)/(C1−C2), where U is the unknown value, C1 is the average of high controls, and C2 is the average value of low controls. The IC50 was determined by fitting percentage of inhibition as a function of compound concentrations with Hill equation using XLfit. Results are expressed as hEBP-DHCR7 Ki (uM) in Table 4. Ki was calculated as described above.

EpiSC-derived OPCs = experiment: In vitro phenotypic screening of OPCs, MBP high-content imaging; type: cell-based, mouse; conditions: percentage of MBP+ oligodendrocytes, 3 days, 0.5 nM to 1000 nM, read-out: mOPC EC50
Procedure: (§1) To assess effects of treatments on OPCs, all treatments were assayed in two or more independent platings of epiblast stem cell-derived OPCs (EpiSC). EpiSC-derived OPCs were obtained using in vitro differentiation protocols and culture conditions described previously (Najm et al, 2011, Nature Methods). OPCs were expanded and frozen down in aliquots. OPCs were thawed into growth conditions for at least one passage before use in further assays.
EpiSC-derived OPCs were grown and expanded in poly-L-ornithine (PO) and laminin-coated flasks in N2B27 media (DMEM/F12 (Gibco), N2-MAX (R&D Systems), B-27 (ThermoFisher), and GlutaMax (Gibco)) supplemented with FGF2 ([…], R&D systems, 233-FB-025) and PDGF-AA ([…], R&D systems, 233-AA-050) before harvesting for experiments. The cells were seeded onto poly-L-ornithine or poly-D-lysine coated CellCarrier Ultra plates (PerkinElmer) coated with laminin (Sigma, L2020) at a density of 150,000/cm^2 in N2B27 media without growth factors. For dose-response testing, a 1000× compound stock in dimethyl sulphoxide (DMSO) was added to assay plates, resulting in 8-point dose curves with final concentrations between 1000 nM and 0.5 nM. Positive controls and DMSO vehicle controls were included in each assay plate. Cells were incubated under standard conditions (37° C., 5% CO2) for 3 days and fixed with 4% paraformaldehyde (PFA) in phosphate buffered saline (PBS) for 20 min. Fixed plates were washed with PBS, permeabilized with 0.1% Triton X-100, and blocked with 10% donkey serum (v/v) in PBS for 40 min. Then, cells were labelled with MBP antibodies (Abcam, ab7349; 1:200) for 2 h at room temperature, washed with PBS, and stained with Alexa Fluor conjugated secondary antibodies (1:500) for 45 min. Nuclei were visualized by DAPI staining (Sigma; 1 μg/ml), followed by further PBS washes.
Cells and cell culture plates were imaged on the Operetta High Content Imaging and Analysis system (PerkinElmer). Analysis (PerkinElmer Harmony and Columbus software) began by identifying intact nuclei stained by DAPI. The peri-nuclear region of each cell was then cross-referenced with the mature myelin protein (MBP) stain to identify oligodendrocyte nuclei, and from this the percentage of oligodendrocytes was calculated. EC50 values were calculated using The Levenberg-Marquardt algorithm to fit a Hill equation to dose-response data (0.5 nM to 1000 nM).

[2] = system: zymostenol accumulation in EpiSC-derived OPCs (EBP); experiment: GC/MS-based sterol profiling, zymostenol accumulation; type: cell-based, mouse; conditions: 8 doses from 0.15 nM to 333 nM, read-out: mZymo GCMS EC50
Procedure: as §1
Sterols were monitored using a modified Folch wash protocol (Hubler et al, 2018, Nature). EpiSC-derived OPCs were plated at 100,000 cells per well in PO— and laminin-coated 96-well plates in N2B27 media without growth factors. After 24 hours, cells were rinsed with saline and plates were frozen. Cholesterol-d7 standard was then added to each well before drying under nitrogen stream and derivatization with 55 μl of bis(trimethylsilyl) trifluoroacetamide. After derivatization, 2 μl were analyzed by gas chromatography/mass spectrometry using an Agilent 5973 Network Mass Selective Detector equipped with a 6890 gas chromatograph system and a HP-5MS capillary column (30 m x 0.25 mm×[…]). Samples were analyzed in full scan mode using electron impact ionization; ion fragment peaks were integrated to calculate sterol abundance, and quantitation was relative to cholesterol-d7. The following ion fragments were used to quantitate each metabolite: cholesterol-d7 (465), FF-Mas (482), cholesterol (368), zymostenol (458), zymosterol (456), Desmosterol (456, 343), 7-dehydrocholesterol (456, 325), lanosterol (393), lathosterol (458), 14-dehydrozymostenol (456, 351). […] All standards were obtained from Avanti Polar Lipids unless otherwise indicated. Calibration curves were generated by injecting varying concentrations of sterol standards and maintaining a fixed amount of cholesterol-D7. For normalized zymostenol accumulation results, the total amount of zymostenol measured after drug treatment was divided by the total amount of zymostenol accumulated after 24 hr treatment with 100 nM positive control reference.

Sequence of human emopamil binding protein and human 7-dehydrocholesterol reductase co-expressing cell membrane (Q15125 whole entry): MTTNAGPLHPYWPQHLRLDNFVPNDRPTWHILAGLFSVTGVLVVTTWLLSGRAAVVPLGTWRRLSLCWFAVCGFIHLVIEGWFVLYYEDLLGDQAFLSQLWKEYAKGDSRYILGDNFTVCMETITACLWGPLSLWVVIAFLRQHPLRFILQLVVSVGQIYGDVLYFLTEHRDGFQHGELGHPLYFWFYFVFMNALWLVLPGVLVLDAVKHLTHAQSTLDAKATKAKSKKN

Row | SMILES | Ki [1] [µM] | EC50 (EpiSC-derived OPCs) [µM] | EC50 ([2]; 24 hours) [µM] | EC50 (EpiSC-derived OPCs; Mus musculus, 72 h) [µM] | EC50 ([2]; Mus musculus, 24 h) [µM]
1 | C[C@H](Cc1ccc([C@H]2CC[C@](C)(O)CC2)c(Cl)c1)CN1CCC2(C1)CS(=O)(=O)C2 (mixture of isomers) [Compound 123A, 6-((R)-3-(3-Chloro-4-((1r,4R)-4-hydroxy-4-methylcyclohexyl)phenyl)-2-methylpropyl)-2-thia-6-azaspiro[3.4]octane 2,2-dioxide, 6-((S)-3-(3-chloro-4-((1r,4S)-4-hydroxy-4-methylcyclohexyl)phenyl)-2-methylpropyl)-2-thia-6-azaspiro[3.4]octane 2,2-dioxide] | 0.0119 | 0.054 | 0.014 | – | –
2 | C[C@H](Cc1ccc(C2(C)CC2)cc1)CN1CCC2(C1)CS(=O)(=O)C2 (single isomer, unassigned) [111B*] | – | – | – | 0.0015 | 0.0014
3 | C[C@@H](Cc1ccc(C2(C)CC2)cc1)CN1CCC2(C1)CS(=O)(=O)C2 (single isomer, unassigned) [111C*] | – | – | – | 0.0061 | 0.0071
4 | C[C@@H](Cc1ccc(C2CCC(F)(F)CC2)c(Cl)c1)CN1CCC2(C1)CS(=O)(=O)C2 (single isomer, unassigned) [117A*] | 0.00943 | – | – | 0.0015 | –
5 | C[C@H](Cc1ccc(C(F)(F)F)nc1)CN1CC2(CCS(=O)(=O)CC2)C1 (single isomer, unassigned) [234A*] | 0.25 | – | – | – | 0.049
6 | C[C@@H](CN1CCC2(CC1)CS(=O)(=O)C2)Oc1ccc(C(F)(F)F)nc1 (single isomer, unassigned) [Example 207A*] | 0.0336 | – | – | – | 0.031
7 | O=S1(=O)CC2(CCN(CCOc3ccnc([C@H]4CC[C@@H](C(F)(F)F)CC4)c3)CC2)C1 [245A*, 7-(2-((2-((cis)-4-(Trifluoromethyl)cyclohexyl)pyridin-4-yl)oxy)ethyl)-2-thia-7-azaspiro[3.5]nonane 2,2-dioxide] | 0.016 | – | – | – | 0.0105
8 | O=S1(=O)CC2(CCN(CCOc3ccnc([C@H]4CC[C@H](C(F)(F)F)CC4)c3)CC2)C1 [245B*, 7-(2-((2-((trans)-4-(trifluoromethyl)cyclohexyl)pyridin-4-yl)oxy)ethyl)-2-thia-7-azaspiro[3.5]nonane 2,2-dioxide] | 0.0197 | – | – | – | 0.00837
9 | O=S1(=O)CC2(CCN(CCOc3ccc([C@H]4CC[C@@H](C(F)(F)F)CC4)nc3)CC2)C1 [247B*, 7-(2-((6-((cis)-4-(trifluoromethyl)cyclohexyl)pyridin-3-yl)oxy)ethyl)-2-thia-7-azaspiro[3.5]nonane 2,2-dioxide] | 0.00897 | – | – | – | 0.0686
10 | CC(Cc1ccc(C(F)(F)F)cc1)CN1CCC2(C1)CS(=O)(=O)C2 (stereo not shown) [Compound 104, 6-(2-Methyl-3-(4-(trifluoromethyl)phenyl)propyl)-2-thia-6-azaspiro[3.4]octane 2,2-dioxide] | – | – | – | 0.0017 | 0.00048
11 | O=S1(=O)CC2(CCN(CCCc3ccc(C(F)(F)F)cc3)C2)C1 [Compound 113, 6-(3-(4-(Trifluoromethyl)phenyl)propyl)-2-thia-6-azaspiro[3.4]octane-2,2-dioxide] | – | – | – | 0.018 | 0.00041
12 | CC(C)(CN1CCC2(CC1)CS(=O)(=O)C2)Oc1ccc(F)c(C(F)(F)F)c1 [Compound 220, 7-(2-(4-Fluoro-3-(trifluoromethyl)phenoxy)-2-methylpropyl)-2-thia-7-azaspiro[3.5]nonane 2,2-dioxide] | 0.0119 | – | – | – | 0.00097
13 | O=S1(=O)CC2(CCN(CCOc3ccc(-c4ccc(C(F)(F)F)nc4)nc3)CC2)C1 [Compound 241, 7-[2-[[6-[6-(Trifluoromethyl)-3-pyridyl]-3-pyridyl]oxy]ethyl]-26-thia-7-azaspiro[3.5]nonane 2,2-dioxide] | 0.069 | – | – | – | 0.0149
14 | O=S1(=O)CC2(CCN(CCOc3cnc(C(F)(F)F)c(Cl)c3)CC2)C1 [Compound 242, 7-[2-[[5-Chloro-6-(trifluoromethyl)-3-pyridyl]oxy]ethyl]-26-thia-7-azaspiro[3.5]nonane 2,2-dioxide] | – | – | – | 0.0163 | 0.00451
15 | Cc1nc(C(F)(F)F)ccc1OCCN1CCC2(CC1)CS(=O)(=O)C2 [Compound 243, 7-[2-[[2-Methyl-6-(trifluoromethyl)-3-pyridyl]oxy]ethyl]-26-thia-7-azaspiro[3.5]nonane 2,2-dioxide] | 0.053 | – | – | – | 0.00661
16 | O=S1(=O)CC2(CCN(CCOc3cnc(C4CCCCC4)c(C(F)(F)F)c3)CC2)C1 [Compound 244, 7-(2-((6-Cyclohexyl-5-(trifluoromethyl)pyridin-3-yl)oxy)ethyl)-2-thia-7-azaspiro[3.5]nonane 2,2-dioxide] | 0.0107 | – | – | – | 0.0235
17 | CC(C)(Cc1ccc(C(F)(F)F)cc1)CN1CCC2(C1)CS(=O)(=O)C2 [Example 125, 6-(2,2-Dimethyl-3-(4-(trifluoromethyl)phenyl)propyl)-2-thia-6-azaspiro[3.4]octane-2,2-dioxide] | – | – | – | 0.00072 | 0.00062
18 | CC(C)(CN1CCC2(CC1)CS(=O)(=O)C2)Oc1ccc(F)c(F)c1 [Example 156, 7-(2-(3,4-Difluorophenoxy)-2-methylpropyl)-2-thia-7-azaspiro[3.5]nonane 2,2-dioxide] | 0.0139 | – | – | – | 0.0015
